These results are taken from patent US12365850B2, “Water-miscible functional fluid, undiluted stock of water-miscible functional fluid, sterilizer for water-miscible functional fluid, and method of sterilizing water-miscible function fluid” (priority 2020, dated 2025).

Series [1] in a line: pH drop suppression test of water-miscible cutting fluid (circulation and blue LED irradiation). It counts as physicochemical.
The next series concerns bacteria. Put plainly: Photosterilization test of neutral photosensitizers (bacterial count after light irradiation). As to conditions: wavelength 450 nm, photosensitizer 50 ppm (Lumichrome 20 ppm). It counts as cell-based.
Setting [2] is: 100%×(pH at preparation−pH after continuing use)/(pH at preparation), riboflavin cutting fluid with the named antioxidant.
The mark [3] stands for this setting: class by pH change rate, riboflavin cutting fluid with the named antioxidant.
[4] abbreviates: riboflavin cutting fluid containing the named antioxidant, one month, Table 3 (same values as Table 2).
Setting [5] is: irradiance 100 μW/cm2, light intensity 10 J/cm2.
The mark [6] stands for this setting: irradiance 100 μW/cm2, light intensity 30 J/cm2.
[7] abbreviates: irradiance 100 μW/cm2, light intensity 50 J/cm2.
The mark [8] stands for this setting: irradiance 100 μW/cm2, light intensity 100 J/cm2.
The mark [9] stands for this setting: irradiance 100 μW/cm2, light intensity 200 J/cm2.
[10] abbreviates: irradiance 100 μW/cm2, light intensity 400 J/cm2.

Structures are written as SMILES. Like-named read-outs stand apart in the source and are kept apart here.

As for `CCC(C)Nc1ccc(NC(C)CC)cc1` (stereo not drawn) [N,N′-Di-sec-butyl-1,4-phenylenediamine], the “pH change rate (%)” value in series [1] (setting [2]) is given as 4.7%. In addition, in series [1] (setting [3]), the “Evaluation of pH drop supression” value is “A (pH change rate of 15% or lower)”. The same compound registered a pH change in series [1] (setting [4]) of 0.4.

For `CC(C)(C)c1cc(Cn2c(=O)n(Cc3cc(C(C)(C)C)c(O)c(C(C)(C)C)c3)c(=O)n(Cc3cc(C(C)(C)C)c(O)c(C(C)(C)C)c3)c2=O)cc(C(C)(C)C)c1O` [Irganox 3114], the “pH change rate (%)” value in series [1] (setting [2]) is listed as 9.3%. Besides, the “Evaluation of pH drop supression” value in series [1] (setting [3]) is recorded as “A (pH change rate of 15% or lower)”. In series [1] (setting [4]), this compound showed a pH change of 0.8.

For the compound `CC(O)CN(CC(C)O)CC(C)O` (stereo not drawn) [Triisopropanolamine], in series [1], the “Evaluation of pH drop supression” value is “A (key: A: pH change rate of 15% or lower; B: pH change rate higher than 15% and at most 20%; C: pH change rate higher than 20% and at most 30%; D: pH change rate higher than 30%)”; the pH change came to 0.8; the “pH change rate (%)” value came out at 9.3%.

With `CC(C)(C)c1ccc(OP(Oc2ccc(C(C)(C)C)cc2C(C)(C)C)Oc2ccc(C(C)(C)C)cc2C(C)(C)C)c(C(C)(C)C)c1` [Tris(2,4-di-tert-butylphenyl) phosphite], in series [1], the “Evaluation of pH drop supression” value is “A (key: A: pH change rate of 15% or lower; B: pH change rate higher than 15% and at most 20%; C: pH change rate higher than 20% and at most 30%; D: pH change rate higher than 30%)”; the pH change came to 0.4; the “pH change rate (%)” value is 4.7%.

Consider `CC(O)CNCC(C)O` (stereo not drawn) [Di-isopropanolamine], for which, in series [1] (setting [2]), the “pH change rate (%)” value amounted to 8.1%. Further, in series [1] (setting [3]), the “Evaluation of pH drop supression” value was “A (pH change rate of 15% or lower)”. This compound also showed a pH change in series [1] (setting [4]) of 0.7.

Take `CC(O)CN` (stereo not drawn) [Monoisopropanolamine]: the “pH change rate (%)” value in series [1] (setting [2]) stood at 19.8%. In addition, the “Evaluation of pH drop supression” value in series [1] (setting [3]) is “B (pH change rate higher than 15% and at most 20%)”. The same compound had a pH change in series [1] (setting [4]) of 1.7.

Consider `Cc1cc2nc3[nH]c(=O)[nH]c(=O)c3nc2cc1C` [Example 2, Lumichrome], for which the Bacterial count result with bacteria (setting [5]) is “++ (bacterial count was 1.0×10^6 CFU/ml to 1.4×10^7 CFU/ml)”; with bacteria (setting [6]), “+ (bacterial count was at least 1.0×10^2 CFU/ml and less than 1.0×10^6 CFU/ml)”; with bacteria (setting [7]), “− (bacterial count was at least 0 and less than 1.0×10^2 CFU/mil)”; in the series on bacteria (setting [8]) it was “− (bacterial count was at least 0 and less than 1.0×10^2 CFU/mil)”; with bacteria (setting [9]), “− (bacterial count was at least 0 and less than 1.0×10^2 CFU/mil)”; with bacteria (setting [10]) it was “− (bacterial count was at least 0 and less than 1.0×10^2 CFU/mil)”.

For `NCCO` [Monoethanol amine], in series [1] (setting [2]), the “pH change rate (%)” value is reported as 17.4%. Moreover, in series [1] (setting [3]), the “Evaluation of pH drop supression” value was “B (pH change rate higher than 15% and at most 20%)”. The pH change in series [1] (setting [4]) is 1.5.

With `NCC1CCCC(CN)C1` (stereo not drawn) [1,3-Bis(aminomethyl)cyclohexane], in series [1] (setting [2]), the “pH change rate (%)” value is 16.3%. In addition, the “Evaluation of pH drop supression” value in series [1] (setting [3]) was “B (pH change rate higher than 15% and at most 20%)”. This compound also displayed a pH change in series [1] (setting [4]) of 1.4.

Turning to `O=C([O-])CN(CCN(CC(=O)[O-])CC(=O)O)CC(=O)O.[Na+].[Na+]` [Disodium edetate], in series [1], the “Evaluation of pH drop supression” value was “A (key: A: pH change rate of 15% or lower; B: pH change rate higher than 15% and at most 20%; C: pH change rate higher than 20% and at most 30%; D: pH change rate higher than 30%)”; the pH change worked out at 0.8; the “pH change rate (%)” value is given as 9.3%.

Regarding `CCCC(=O)OCC(OC(=O)CCC)C(OC(=O)CCC)C(Cn1c2nc(=O)[nH]c(=O)c-2nc2cc(C)c(C)cc21)OC(=O)CCC` (stereo not drawn) [Example 7, Riboflavin butyrate], the Bacterial count entry in the series with bacteria (setting [5]) is “++ (bacterial count was 1.0×10^6 CFU/ml to 1.4×10^7 CFU/ml)”; with bacteria (setting [6]) it was “+ (bacterial count was at least 1.0×10^2 CFU/ml and less than 1.0×10^6 CFU/ml)”; with bacteria (setting [7]) it was “+ (bacterial count was at least 1.0×10^2 CFU/ml and less than 1.0×10^6 CFU/ml)”; in the series on bacteria (setting [8]), “+ (bacterial count was at least 1.0×10^2 CFU/ml and less than 1.0×10^6 CFU/ml)”; in the series with bacteria (setting [9]), “− (bacterial count was at least 0 and less than 1.0×10^2 CFU/mil)”; with bacteria (setting [10]), “− (bacterial count was at least 0 and less than 1.0×10^2 CFU/mil)”.

As to `Cc1cc(C(C)(C)C)c(O)c(C(C)(C)C)c1` [BHT, butylated hydroxytoluene], the “pH change rate (%)” value in series [1] (setting [2]) is reported as 11.6%. The “Evaluation of pH drop supression” value in series [1] (setting [3]) is on record as “A (pH change rate of 15% or lower)”. Moreover, the pH change in series [1] (setting [4]) stood at 1.

With `Sc1nc2ccccc2[nH]1` [2-mercaptobenzimidazole], in series [1], the “Evaluation of pH drop supression” value was “C (key: A: pH change rate of 15% or lower; B: pH change rate higher than 15% and at most 20%; C: pH change rate higher than 20% and at most 30%; D: pH change rate higher than 30%)”; the pH change turned out to be 2.4; the “pH change rate (%)” value came to 27.9%.

For `CC(C)(C)c1cc(CCC(=O)OCC(COC(=O)CCc2cc(C(C)(C)C)c(O)c(C(C)(C)C)c2)(COC(=O)CCc2cc(C(C)(C)C)c(O)c(C(C)(C)C)c2)COC(=O)CCc2cc(C(C)(C)C)c(O)c(C(C)(C)C)c2)cc(C(C)(C)C)c1O` [Irganox 1010], the “pH change rate (%)” value in series [1] (setting [2]) turned out to be 5.8%. Moreover, the “Evaluation of pH drop supression” value in series [1] (setting [3]) was “A (pH change rate of 15% or lower)”. Moreover, in series [1] (setting [4]), the pH change was found to be 0.5.

For `O=C1O[C@H]([C@@H](O)CO)C([O-])=C1O.[Na+]` [Sodium ascorbate], the “pH change rate (%)” value in series [1] (setting [2]) is listed as 24.4%. The “Evaluation of pH drop supression” value in series [1] (setting [3]) is “C (pH change rate higher than 20% and at most 30%)”. For the same compound, the pH change in series [1] (setting [4]) is reported as 2.1.

As to `Cc1c(C)c2c(c(C)c1O)CC[C@@](C)(CCC[C@H](C)CCC[C@H](C)CCCC(C)C)O2` [D-α-tocopherol], the “pH change rate (%)” value in series [1] (setting [2]) turned out to be 7.0%. Besides, the “Evaluation of pH drop supression” value in series [1] (setting [3]) is recorded as “A (pH change rate of 15% or lower)”. In series [1] (setting [4]), this compound registered a pH change of 0.6.

As for `OCCNCCO` [Diethanolamine], in series [1] (setting [2]), the “pH change rate (%)” value is reported as 8.1%. The “Evaluation of pH drop supression” value in series [1] (setting [3]) is reported as “A (pH change rate of 15% or lower)”. In series [1] (setting [4]), the pH change is 0.7.
